Values of other authors in PubChem BioAssay AID1259409 (Chemical Carcinogenesis Research Information System (CCRIS), 2018).

System: rodent chemically induced tumor inhibition, incidence and multiplicity
Assay: CCRIS tumor inhibitor studies
Details: Dose [Inhibitor]: 0, Species: RAT, Strain/Sex: SPRAGUE-DAWLEY/FEMALE

Row | SMILES | tumour outcome (control, treated, inhibition, significance) (Carcinogen: N-METHYL-N-NITROSOUREA, 684-93-5, 400 MG/KG IN DIET FOR THE DURATION OF STUDY BEGINNING 7 D PRIOR TO CARCINOGEN DOSE (STUDY DURATION: 187 D), Route [Inhibitor]: ORAL, Target Tissue: Type of Lesion: MAMMARY GLAND: TUMOR, Dose [Carcinogen]: 50 MG/KG BW ONCE, Promoter: NONE USED) | tumour outcome (control, treated, inhibition, significance) (Carcinogen: NONE, 0.1 MG/KG BW/D FOR 104 WK (STUDY DURATION: 104 WK), Route [Inhibitor]: NOT SPECIFIED, Target Tissue: Type of Lesion: REPRODUCTIVE TRACT (DISTAL): BENIGN GRANULAR CELL TUMOR, Promoter: NONE) | tumour outcome (control, treated, inhibition, significance) (Carcinogen: NONE, 1 MG/KG BW/D FOR 104 WK (STUDY DURATION: 104 WK), Route [Inhibitor]: NOT SPECIFIED, Target Tissue: Type of Lesion: REPRODUCTIVE TRACT (DISTAL): BENIGN GRANULAR CELL TUMOR, Promoter: NONE) | tumour outcome (control, treated, inhibition, significance) (Carcinogen: NONE, 10 MG/KG BW/D FOR 104 WK (STUDY DURATION: 104 WK), Route [Inhibitor]: NOT SPECIFIED, Target Tissue: Type of Lesion: REPRODUCTIVE TRACT (DISTAL): BENIGN GRANULAR CELL TUMOR, Promoter: NONE)
1 | CCC1(c2ccc(N)cc2)CCC(=O)NC1=O (centres undefined) | 100%, 100%, 0%, not significant |  |  | 
2 | N#Cc1ccc(C(c2ccc(C#N)cc2)n2cncn2)cc1 |  | 7/60 (12%), 0/60 (0%), 100%, not calculated | 7/60 (12%), 0/60 (0%), 100%, not calculated | 7/60 (12%), 0/60 (0%), 100%, not calculated
